The results in this text go back to ChEMBL document CHEMBL1141066, “Acetylenic TACE inhibitors. Part 2: SAR of six-membered cyclic sulfonamide hydroxamates” (Bioorg Med Chem Lett, 2005).

Assay [1] addresses Disintegrin and metalloproteinase domain-containing protein 17 (Homo sapiens, UniProt P78536). The assay can be described thus: Inhibitory activity against TACE[ADAM metallopeptidase domain 17] in isolated enzyme assay.
Another assay concerns the target T1, Interstitial collagenase (Homo sapiens, UniProt P03956).
T1 sequence (P03956 whole entry): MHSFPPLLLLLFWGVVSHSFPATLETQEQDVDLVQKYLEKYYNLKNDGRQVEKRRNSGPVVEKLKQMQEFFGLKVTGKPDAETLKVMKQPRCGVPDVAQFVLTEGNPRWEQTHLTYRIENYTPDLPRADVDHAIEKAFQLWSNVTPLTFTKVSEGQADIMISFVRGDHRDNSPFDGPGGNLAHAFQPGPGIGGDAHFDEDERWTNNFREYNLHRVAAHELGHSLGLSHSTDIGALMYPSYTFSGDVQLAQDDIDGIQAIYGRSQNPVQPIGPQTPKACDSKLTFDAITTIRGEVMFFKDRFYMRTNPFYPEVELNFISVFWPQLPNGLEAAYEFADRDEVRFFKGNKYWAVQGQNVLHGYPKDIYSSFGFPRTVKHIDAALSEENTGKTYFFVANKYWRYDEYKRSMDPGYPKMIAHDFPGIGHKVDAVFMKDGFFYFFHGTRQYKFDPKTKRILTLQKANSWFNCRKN
The assay can be described thus: Inhibitory activity against matrix metallopeptidase 1.

In the next assay the target is Collagenase 3 (Homo sapiens, UniProt P45452). The assay can be described thus: Inhibitory activity against matrix metallopeptidase 13.
In a further assay the test system is THP-1. In words: Percentage inhibition of TNF production in LPS-stimulated THP-1 cells. It counts as functional, Homo sapiens.

Disintegrin and metalloproteinase domain-containing protein 17, sequence (P78536 whole entry, the tested form may be a part): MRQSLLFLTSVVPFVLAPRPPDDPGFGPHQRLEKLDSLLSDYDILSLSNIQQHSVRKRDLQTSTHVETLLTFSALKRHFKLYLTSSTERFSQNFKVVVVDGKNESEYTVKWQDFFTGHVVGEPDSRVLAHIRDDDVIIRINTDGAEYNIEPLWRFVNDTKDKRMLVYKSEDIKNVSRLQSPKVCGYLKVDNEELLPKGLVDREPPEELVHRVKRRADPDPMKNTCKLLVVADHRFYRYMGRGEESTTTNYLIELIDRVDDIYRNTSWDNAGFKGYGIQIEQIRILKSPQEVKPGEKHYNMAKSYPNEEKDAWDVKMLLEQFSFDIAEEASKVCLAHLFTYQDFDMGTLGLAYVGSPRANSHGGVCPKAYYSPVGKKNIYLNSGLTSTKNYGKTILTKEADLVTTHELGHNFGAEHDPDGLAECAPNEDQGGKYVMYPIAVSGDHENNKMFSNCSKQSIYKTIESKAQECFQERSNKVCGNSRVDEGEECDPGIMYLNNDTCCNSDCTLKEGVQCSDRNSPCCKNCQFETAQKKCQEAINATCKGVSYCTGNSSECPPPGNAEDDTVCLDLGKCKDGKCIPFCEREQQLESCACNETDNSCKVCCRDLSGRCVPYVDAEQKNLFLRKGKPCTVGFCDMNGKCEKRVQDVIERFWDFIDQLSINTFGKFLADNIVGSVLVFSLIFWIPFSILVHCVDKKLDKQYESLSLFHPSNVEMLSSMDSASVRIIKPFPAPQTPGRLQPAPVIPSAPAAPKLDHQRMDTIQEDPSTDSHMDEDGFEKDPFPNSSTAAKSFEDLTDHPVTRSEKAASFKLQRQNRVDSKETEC

Take `CC#CCOc1ccc(S(=O)(=O)N2CCSCC2C(=O)NO)cc1` (configuration not stated): the concentration for half-maximal inhibition (IC50) in assay [1] amounted to 3 nM. In turn, `CC#CCOc1ccc(S(=O)(=O)N2CCSC(C)(C)C2C(=O)NO)cc1` (configuration not stated) returned an IC50 against Interstitial collagenase of 7 nM. In other words, the single-digit nanomolar range. Consider `CC#CCOc1ccc(S(=O)(=O)N2CCOCC2C(=O)NO)cc1` (configuration not stated), for which the half-maximal inhibitory concentration (IC50) in assay [1] amounted to 5 nM. Compound `CC#CCOc1ccc(S(=O)(=O)N2CCN(S(C)(=O)=O)CC2C(=O)NO)cc1` (configuration not stated) had an IC50 against Collagenase 3 of 6 nM. Consider `CC#CCOc1ccc(S(=O)(=O)N2CCNCC2C(=O)NO)cc1` (configuration not stated), for which inhibition at Collagenase 3 was half-maximal at 8 nM (IC50). In the assay with THP-1, this compound came in with an Inhibition of 71%. With `CC#CCOc1ccc(S(=O)(=O)N2CCN(C(=O)OC)CC2C(=O)NO)cc1` (configuration not stated), on Collagenase 3, inhibition was half-maximal at 9 nM (IC50).
